{
  "source": "patent US11766468B2",
  "about": "“Method of treating prostate cancer with GnRH antagonist” (priority 2012, dated 2023)",
  "test": "CS21 safety: treatment-emergent adverse events (MedDRA SOC/PT), crude incidence, also by subgroup",
  "assay_type": "in vivo",
  "conditions": "pooled degarelix",
  "description": "The safety variables for this study were assessed on the following: the frequency and severity of adverse events (AEs); the presence of clinically significant changes in laboratory parameters (clinical chemistry, hematology and urinalysis); changes in electrocardiograms (ECGs) and vital signs; changes detected by physical examination; and body weight.\nAn AE was therefore any unfavorable or unintended sign (including an abnormal laboratory finding), symptom or disease temporally associated with the use of the product, whether or not related to the IMP.\nAn adverse drug reaction (ADR) was defined as an AE evaluated by the investigator as being probably or possibly related to treatment with the IMP.\nAEs were graded according to the National Cancer Institute (NCI) Common Terminology Criteria for Adverse Events (CTCAE). In accordance with the CTCAE criteria, AEs were rated on a five-point scale corresponding to mild, moderate, severe, life-threatening or disabling and death. For those AEs not described in the CTCAE, a separate five-point rating scale was used for rating of the intensity of AEs as follows below:\nSafety parameters were evaluated for all patients included in the ITT analysis set, comprising all 610 randomized patients who received at least one dose of study medication. All safety tables include four columns: the three treatment groups described separately, and the pooled degarelix group.\nAdverse events were regarded as ‘treatment-emergent’ if they occurred in the time interval from initial dosing to end-of-study. Adverse events were considered ‘pre-treatment’ if they occurred between screening and the initial injections of IMP. As described above, all AEs were classified according to MedDRA (version 10.0) system organ class (SOC), sorted alphabetically, and by preferred term (PT), in decreasing frequency of occurrence. Treatment-emergent AEs were expressed in terms of intensity (using NCI CTCAE) and relationship to study drug.\nUsing the results from the summary of clinical efficacy (SCE) and summary of clinical safety (SCS) findings, different patient subgroups were analyzed. Subgroup distinguishers included race (white, black, and other), age (<65 years, […], and >75 years), weight (<70 kg, ≥70−<90 kg, and ≥90 kg), body mass index (BMI) (≤20, >20 to 30, and >30 kg/m^2)), region (North-America, Western Europe, Central and Eastern Europe and Other), and stage of prostate cancer (e.g., localized, locally advanced, and metastatic).",
  "note": "Marks after values point to notes of the source that are not given here. Square brackets hold non-standard residues; d marks the D form. Peptide text beside a SMILES is read from it. * marks the point of attachment. dPhe(4-NHCONH2) = NC(=O)Nc1ccc(C[C@@H](N)C(=O)O)cc1; Dihydroorotyl(S) = O=C1C[C@@H](C(=O)*)NC(=O)N1; dPhe(4-Cl) = N[C@H](Cc1ccc(Cl)cc1)C(=O)O; Phe(4-NH2) = Nc1ccc(C[C@H](N)C(=O)O)cc1; d2Nal = N[C@H](Cc1ccc2ccccc2c1)C(=O)O; Lys(iPr) = CC(C)NCCCC[C@H](N)C(=O)O; d3Pal = N[C@H](Cc1cccnc1)C(=O)O",
  "data": [
    {"smiles": "CC(=O)N[C@H](Cc1ccc2ccccc2c1)C(=O)N[C@H](Cc1ccc(Cl)cc1)C(=O)N[C@H](Cc1cccnc1)C(=O)N[C@@H](CO)C(=O)N[C@@H](Cc1ccc(NC(=O)[C@@H]2CC(=O)NC(=O)N2)cc1)C(=O)N[C@H](Cc1ccc(NC(N)=O)cc1)C(=O)N[C@@H](CC(C)C)C(=O)N[C@@H](CCCCNC(C)C)C(=O)N1CCC[C@H]1C(=O)N[C@H](C)C(N)=O", "note": "[Degarelix, D-Alaninamide, N-acetyl-3-(2-naphthalenyl)-D-alanyl-4-chloro-D-phenylalanyl-3-(3-pyridinyl)-D-alanyl-L-seryl-4-[[[(4S)-hexahydro-2,6-dioxo-4-pyrimidinyl]carbonyl]amino]-L phenylalanyl-4-[(aminocarbonyl)amino]-D-phenylalanyl-L leucyl-N6-(1-methylethyl)-L-lysyl-L-prolyl] (Ac-[d2Nal][dPhe(4-Cl)][d3Pal]S[Phe(4-NH2)](Dihydroorotyl(S))[dPhe(4-NHCONH2)]L[Lys(iPr)]P[dA]-NH2)", "values": [
      {"measurement": "Gastrointestinal disorders, % of patients", "setting": "Age <65", "value": "(9%)*"},
      {"measurement": "Infections and infestations, % of patients", "setting": "Age <65", "value": "(16%)"},
      {"measurement": "Musculoskeletal and connective tissue disorders, % of patients", "setting": "Age <65", "value": "(9%)**"},
      {"measurement": "Renal and urinary disorders, % of patients", "setting": "Age <65", "value": "(10%)*"},
      {"measurement": "Subjects with adverse events, %", "setting": "Age <65", "value": "(75%)"},
      {"measurement": "Urinary retention, % of patients", "setting": "Age <65", "value": "(1%)*"},
      {"measurement": "Depression, % of patients", "setting": "PCA = Localised", "value": "(<1%)*"},
      {"measurement": "Erectile dysfunction, % of patients", "setting": "PCA = Localised", "value": "(<1%)*"},
      {"measurement": "Gynaecomastia, % of patients", "setting": "PCA = Localised", "value": "(<1%)"},
      {"measurement": "Infections and infestations, % of patients", "setting": "PCA = Localised", "value": "(17%)"},
      {"measurement": "Musculoskeletal and connective tissue disorders, % of patients", "setting": "PCA = Localised", "value": "(16%)"},
      {"measurement": "Neoplasms benign, malignant and unspecified, % of patients", "setting": "PCA = Localised", "value": "(3%)"},
      {"measurement": "Oedema peripheral, % of patients", "setting": "PCA = Localised", "value": "(2%)*"},
      {"measurement": "Psychiatric disorders, % of patients", "setting": "PCA = Localised", "value": "(9%)"},
      {"measurement": "Reproductive system and breast disorders, % of patients", "setting": "PCA = Localised", "value": "(4%)"},
      {"measurement": "Subjects with adverse events, %", "setting": "PCA = Localised", "value": "(81%)"},
      {"measurement": "Upper respiratory tract infection, % of patients", "setting": "PCA = Localised", "value": "(3%)"},
      {"measurement": "Urinary tract infection, % of patients", "setting": "PCA = Localised", "value": "(2%)*"},
      {"measurement": "Arthralgia, % of patients", "setting": "PCA = Locally advanced", "value": "(2%)**"},
      {"measurement": "Back pain, % of patients", "setting": "PCA = Locally advanced", "value": "( 5%)"},
      {"measurement": "Cardiac disorders, % of patients", "setting": "PCA = Locally advanced", "value": "(3%)"},
      {"measurement": "Diarrhoea, % of patients", "setting": "PCA = Locally advanced", "value": "(<1%)*"},
      {"measurement": "Dyspnoea, N patients", "setting": "PCA = Locally advanced", "value": 0},
      {"measurement": "Fall, % of patients", "setting": "PCA = Locally advanced", "value": "(<1%)"},
      {"measurement": "Gastrointestinal disorders, % of patients", "setting": "PCA = Locally advanced", "value": "(13%)"},
      {"measurement": "Infections and infestations, % of patients", "setting": "PCA = Locally advanced", "value": "(13%)"},
      {"measurement": "Injury, poisoning and procedural complications, % of patients", "setting": "PCA = Locally advanced", "value": "(2%)**"},
      {"measurement": "Muscle strain, % of patients", "setting": "PCA = Locally advanced", "value": "(<1%)"},
      {"measurement": "Musculoskeletal and connective tissue disorders, % of patients", "setting": "PCA = Locally advanced", "value": "(10%)"},
      {"measurement": "Respiratory, thoracic and mediastinal disorders, % of patients", "setting": "PCA = Locally advanced", "value": "( 7%)"},
      {"measurement": "Subjects with adverse events, %", "setting": "PCA = Locally advanced", "value": "(74%)"},
      {"measurement": "Urinary tract infection, % of patients", "setting": "PCA = Locally advanced", "value": "(<1%)**"},
      {"measurement": "Arthralgia, % of patients", "setting": "PCA = Metastatic", "value": "( 5%)"},
      {"measurement": "Back pain, % of patients", "setting": "PCA = Metastatic", "value": "( 5%)"},
      {"measurement": "Gastrointestinal disorders, % of patients", "setting": "PCA = Metastatic", "value": "(15%)"},
      {"measurement": "Musculoskeletal and connective tissue disorders, % of patients", "setting": "PCA = Metastatic", "value": "(21%)"},
      {"measurement": "Pain in extremity, % of patients", "setting": "PCA = Metastatic", "value": "( 1%)"},
      {"measurement": "Subjects with adverse events, %", "setting": "PCA = Metastatic", "value": "(81%)"},
      {"measurement": "Erectile dysfunction, % of patients", "setting": "Race = Other", "value": "(2%)*"},
      {"measurement": "Infections and infestations, % of patients", "setting": "Race = Other", "value": "(33%)"},
      {"measurement": "Reproductive system and breast disorders, % of patients", "setting": "Race = Other", "value": "(10%)"},
      {"measurement": "Subjects with adverse events, %", "setting": "Race = Other", "value": "(95%)"},
      {"measurement": "Urinary tract infection, % of patients", "setting": "Race = Other", "value": "(5%)*"},
      {"measurement": "Cardiac disorders, % of patients", "setting": "Race = White", "value": "(10%)"},
      {"measurement": "Chest pain, % of patients", "setting": "Race = White", "value": "(<1%)*"},
      {"measurement": "Cystitis noninfective, N patients", "setting": "Race = White", "value": 0},
      {"measurement": "Deep vein thrombosis, N patients", "setting": "Race = White", "value": 0},
      {"measurement": "Infections and infestations, % of patients", "setting": "Race = White", "value": "(19%)"},
      {"measurement": "Investigations, % of patients", "setting": "Race = White", "value": "(26%)"},
      {"measurement": "Musculoskeletal and connective tissue disorders, % of patients", "setting": "Race = White", "value": "(15%)**"},
      {"measurement": "Musculoskeletal stiffness, N patients", "setting": "Race = White", "value": 0},
      {"measurement": "Myocardial ischaemia, % of patients", "setting": "Race = White", "value": "(<1%)*"},
      {"measurement": "Oedema peripheral, % of patients", "setting": "Race = White", "value": "(1%)*"},
      {"measurement": "Orthostatic hypotension, N patients", "setting": "Race = White", "value": 0},
      {"measurement": "Renal and urinary disorders, % of patients", "setting": "Race = White", "value": "(14%)"},
      {"measurement": "Subjects with adverse events, %", "setting": "Race = White", "value": "(79%)"},
      {"measurement": "Upper respiratory tract infection, % of patients", "setting": "Race = White", "value": "(<1%)*"},
      {"measurement": "Urinary retention, % of patients", "setting": "Race = White", "value": "( 1%)*"},
      {"measurement": "Vascular disorders, % of patients", "setting": "Race = White", "value": "(31%)"},
      {"measurement": "Cardiac disorders, % of patients", "setting": "Weight 70-<90 kg", "value": "( 5%)*"},
      {"measurement": "Erectile dysfunction, % of patients", "setting": "Weight 70-<90 kg", "value": "(<1%)*"},
      {"measurement": "Nervous system disorders, % of patients", "setting": "Weight 70-<90 kg", "value": "(12%)"},
      {"measurement": "Reproductive system and breast disorders, % of patients", "setting": "Weight 70-<90 kg", "value": "( 5%)"},
      {"measurement": "Subjects with adverse events, %", "setting": "Weight 70-<90 kg", "value": "(81%)"},
      {"measurement": "Arthralgia, % of patients", "setting": "Weight <70 kg", "value": "( 3%)**"},
      {"measurement": "Musculoskeletal and connective tissue disorders, % of patients", "setting": "Weight <70 kg", "value": "(17%)*"},
      {"measurement": "Pelvic pain, N patients", "setting": "Weight <70 kg", "value": 0},
      {"measurement": "Reproductive system and breast disorders, % of patients", "setting": "Weight <70 kg", "value": "(4%)*"},
      {"measurement": "Subjects with adverse events, %", "setting": "Weight <70 kg", "value": "(78%)"},
      {"measurement": "Arthralgia, % of patients", "setting": "Weight >=90 kg", "value": "( 5%)"},
      {"measurement": "Back pain, % of patients", "setting": "Weight >=90 kg", "value": "( 5%)*"},
      {"measurement": "Infections and infestations, % of patients", "setting": "Weight >=90 kg", "value": "(26%)"},
      {"measurement": "Musculoskeletal and connective tissue disorders, % of patients", "setting": "Weight >=90 kg", "value": "(15%)*"},
      {"measurement": "Neoplasms benign, malignant and unspecified, % of patients", "setting": "Weight >=90 kg", "value": "(1%)*"},
      {"measurement": "Subjects with adverse events, %", "setting": "Weight >=90 kg", "value": "(84%)"},
      {"measurement": "Urinary tract infection, % of patients", "setting": "Weight >=90 kg", "value": "( 3%)*"}
    ]}
  ]
}
